Laboratory results: patent US20040198828A1, “Combinational use of long-acting and short-acting anti-histamines for ocular allergies” (priority 2003, published 2004)

System: eyes of allergic subjects challenged with allergen solution (birch, cat hair, cat dander)
Test: Conjunctival allergen challenge (CAC), onset of action and duration of action study
Format: in vivo, human
Conditions: for Mean Differences (Active-Placebo), 15 Min Itching, Timepoint 1 / Mean Differences (Active-Placebo), 15 Min Itching, Timepoint 2 / Mean Differences (Active-Placebo), 15 Min Itching, Timepoint 3 / Mean Differences (Active-Placebo), 15 Min Redness, Timepoint 1 / Mean Differences (Active-Placebo), 15 Min Redness, Timepoint 2 / Mean Differences (Active-Placebo), 15 Min Redness, Timepoint 3: challenge 15 min after one drop; for Mean Differences (Active-Placebo), 16 hr Itching, Timepoint 1 / Mean Differences (Active-Placebo), 16 hr Itching, Timepoint 2 / Mean Differences (Active-Placebo), 16 hr Itching, Timepoint 3 / Mean Differences (Active-Placebo), 16 hr Redness, Timepoint 1 / Mean Differences (Active-Placebo), 16 hr Redness, Timepoint 2 / Mean Differences (Active-Placebo), 16 hr Redness, Timepoint 3: challenge 16 hr after one drop
Procedure: These following studies were performed using the standard conjunctival allergen challenge model as described in Abelson et al., Arch Ophthalmol. 108(1): 84-88 (1990), and Abelson et al., Curr Allergy Asthma Rep. 3(4): 363-8 (2003). Each experiment was a double-masked, contralateral placebo controlled, single center, onset of action and duration of action allergen challenge study.
A baseline ocular exam was performed to rule out any subjects with any ocular surface anomaly that would interfere with evaluations. A bilateral conjunctival allergen challenge was performed with the allergen to which the subject was known to be allergic to as evidenced by a skin test or previous conjunctival allergen challenge.
Subjects were administered one drop of masked study medication in each eye as described in the below tables (see Table 1-3). A period of at least 1 week was left between experiments on each single subject. At the specified timepoints, subjects were challenged bilaterally with one drop of allergen solution (allergen used were birch, cat hair, cat dander) at a concentration that was known to historically elicit a positive response (Abelson et al., Arch Ophthalmol. 108(1): 84-88 (1990)). Phosphate buffered saline (PBS) was used as placebo. A historic positive response to the challenge was defined as at least a +2.0 itching and +2.0 redness on scales 0-4, with 0 being none and 4 being severe.
Subjects were asked to grade their ocular itching on standardized scales described in Abelson et al., Arch Ophthalmol. 108(1): 84-88 (1990), scoring was performed from a scale of 0-4 at 3, 5, and 7 minutes post-challenge. Redness was graded by a masked observer on standardized scales 0-4 at 10, 15, and 20 minutes post-challenge. Digital photographs were taken of each eye at the 15 minute timepoint. If needed, subjects were administered one drop of a currently marketed topical anti-allergic medication (Naphcon A™: pheniramine maleate 0.3%/naphthazoline hydrochloride 0.025% ophthalmic solution) to relieve any immediate discomfort at the end of the visit.
Data from all subjects who completed any post-challenge examination was evaluable for that experiment and treatment. Mean itching and redness scores were compared between the treated eye and placebo eye to determine an efficacy score.

[1] = itching scale 0-4, timepoint 1 of 3, 5, 7 min post-challenge
[2] = itching scale 0-4, timepoint 2 of 3, 5, 7 min post-challenge
[3] = itching scale 0-4, timepoint 3 of 3, 5, 7 min post-challenge
[4] = redness scale 0-4, timepoint 1 of 10, 15, 20 min post-challenge
[5] = redness scale 0-4, timepoint 2 of 10, 15, 20 min post-challenge
[6] = redness scale 0-4, timepoint 3 of 10, 15, 20 min post-challenge

SMILES	Mean Differences (Active-Placebo), 15 Min Itching, Timepoint 1 [1]	Mean Differences (Active-Placebo), 15 Min Itching, Timepoint 2 [2]	Mean Differences (Active-Placebo), 15 Min Itching, Timepoint 3 [3]	Mean Differences (Active-Placebo), 15 Min Redness, Timepoint 1 [4]	Mean Differences (Active-Placebo), 15 Min Redness, Timepoint 2 [5]	Mean Differences (Active-Placebo), 15 Min Redness, Timepoint 3 [6]	Mean Differences (Active-Placebo), 16 hr Itching, Timepoint 1 [1]	Mean Differences (Active-Placebo), 16 hr Itching, Timepoint 2 [2]	Mean Differences (Active-Placebo), 16 hr Itching, Timepoint 3 [3]	Mean Differences (Active-Placebo), 16 hr Redness, Timepoint 1 [4]	Mean Differences (Active-Placebo), 16 hr Redness, Timepoint 2 [5]	Mean Differences (Active-Placebo), 16 hr Redness, Timepoint 3 [6]	Mean Differences (Active-Placebo), 4 hr Itching, Timepoint 1 (challenge 4 hr after one drop, itching scale 0-4, timepoint 1 of 3, 5, 7 min post-challenge)	Mean Differences (Active-Placebo), 4 hr Itching, Timepoint 2 (challenge 4 hr after one drop, itching scale 0-4, timepoint 2 of 3, 5, 7 min post-challenge)	Mean Differences (Active-Placebo), 4 hr Itching, Timepoint 3 (challenge 4 hr after one drop, itching scale 0-4, timepoint 3 of 3, 5, 7 min post-challenge)	Mean Differences (Active-Placebo), 4 hr Redness, Timepoint 1 (challenge 4 hr after one drop, redness scale 0-4, timepoint 1 of 10, 15, 20 min post-challenge)	Mean Differences (Active-Placebo), 4 hr Redness, Timepoint 2 (challenge 4 hr after one drop, redness scale 0-4, timepoint 2 of 10, 15, 20 min post-challenge)	Mean Differences (Active-Placebo), 4 hr Redness, Timepoint 3 (challenge 4 hr after one drop, redness scale 0-4, timepoint 3 of 10, 15, 20 min post-challenge)
CN1CCC(=C2c3ccccc3CC(=O)c3sccc32)CC1 [Keto 0.05%, ketotifen]	−2.00	−2.33	−2.00	−1.50	−1.17	−1.50	0.75	0.25	0.25	0.5	0.5	0.25						
CN1CCCC(n2nc(Cc3ccc(Cl)cc3)c3ccccc3c2=O)CC1 (stereo not drawn) [Azelastine 0.05%, azelastine]	−2.5	−2.5	−2.5	0	0	0							−0.5	−1.0	−1.0	+0.5	+1.0	+1.0
CN(C)CCC(c1ccccc1)c1ccccn1 (stereo not drawn) [Pheniramine 0.5%, pheniramine]	−2.67	−2.33	−2.17	−1.67	−1.83	−1.67	−0.25	0	0	0.25	0.25	0.25						
c1ccc(CN(CC2=NCCN2)c2ccccc2)cc1 [Antazoline 0.5%, antazoline]	−2.33	−2.83	−2.5	−0.83	−0.83	−1.00												
